Reference: patent publication US20090048301A1 (IMCLONE SYSTEMS INCORPORATED, priority 2003, published 2009)

Test system: bovine tubulin
Test: In vitro tubulin polymerization assay (turbidity at 340 nm)
Assay type: biochemical
Conditions: 10 μM compound, 30 minute data point, vs 1% DMSO control
Summary of the method: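 Percent inhibition derives from turbidity (340 nm) at 30 min relative to 1% DMSO controls, read every minute at 37° C. Polymerization mix: 3 mg/ml bovine tubulin, <3% MAPs, in PIPES pH 7 G-PEM with 1 mM GTP, 1 mM MgCl2, 5% glycerol; enhancers also detectable.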

SMILES	Tubulin Assay: percent inhibition at 10 μM based on 30 minute data [%]
FC(F)(F)c1cccc(-c2nnc(-c3ccccc3NCc3ccc4c(c3)OCO4)[nH]2)c1 [Compound 152, Benzo[1,3]dioxol-5-ylmethyl-{2-[5-(3-trifluoromethyl-phenyl)-4H-[1,2,4]triazol-3-yl]-phenyl}-amine]	73
COc1ccc(S(=O)(=O)Nc2ccccc2-c2nnc(Nc3ccc4c(c3)OCO4)o2)cc1OC [Compound 238, N-{2-[5-(Benzo[1,3]dioxol-5-ylamino)-[1,3,4]oxadiazol-2-yl]-phenyl}-3,4-dimethoxy-benzenesulfonamide]	65
COc1cccc(CNc2nnc(-c3ccccc3NCc3ccncc3)[nH]2)c1 [Compound 112, (3-Methoxy-benzyl)-(5-{2-[(pyridin-4-ylmethyl)-amino]-phenyl}-4H-[1,2,4]triazol-3-yl)-amine]	49
COc1cccc(-c2nnc(-c3ccccc3NCc3ccc4cn[nH]c4c3)[nH]2)c1 [Compound 149, (1H-Indazol-6-ylmethyl)-{2-[5-(3-methoxy-phenyl)-4H-[1,2,4]triazol-3-yl]-phenyl}-amine]	26
COc1ccc(OC)c(Nc2nnc(-c3cccnc3NCc3cccnc3)[nH]2)c1 [Compound 28, {3-[5-(2,5-Dimethoxy-phenylamino)-4H-[1,2,4]triazol-3-yl]-pyridin-2-yl}-pyridin-3-ylmethyl-amine]	22
COc1cc(Nc2ncccc2-c2nnc(NS(=O)(=O)c3cccc(OC)c3)o2)cc(OC)c1 [Compound 243, N-{5-[2-(3,5-Dimethoxy-phenylamino)-pyridin-3-yl]-[1,3,4]oxadiazol-2-yl}-3-methoxy-benzenesulfonamide]	55
COc1ccc(Nc2nnc(-c3cccnc3NCc3cccnc3)[nH]2)cc1 [Compound 26, {3-[5-(4-Methoxy-phenylamino)-4H-[1,2,4]triazol-3-yl]-pyridin-2-yl}-pyridin-3-ylmethyl-amine]	20
COc1ccc(Nc2nnc(-c3cccnc3NCc3cccnc3)[nH]2)c(OC)c1 [Compound 27, {3-[5-(2,4-Dimethoxy-phenylamino)-4H-[1,2,4]triazol-3-yl]-pyridin-2-yl}-pyridin-3-ylmethyl-amine]	20
CN(C)c1ccc(-c2nnc(Nc3ccc4c(c3)OCCO4)o2)c(NCc2ccncc2)c1 [Compound 231]	28
CN(C)c1ccc(-c2nnc(Nc3ccc4c(c3)OCCO4)o2)c(NCc2ccc(F)c(F)c2)c1 [Compound 233, {5-[2-(3,4-Difluoro-benzylamino)-4-dimethylamino-phenyl]-[1,3,4]oxadiazol-2-yl}-(2,3-dihydro-benzo[1,4]dioxin-6-yl)-amine]	40
COc1cc(Nc2nnc(-c3ccccc3NCc3ccc(F)c(F)c3)[nH]2)cc(OC)c1 [Compound 120, {5-[2-(3,4-Difluoro-benzylamino)-phenyl]-4H-[1,2,4]triazol-3-yl}-(3,5-dimethoxy-phenyl)-amine]	63
COc1ccc(Nc2nnc(-c3ccccc3NCc3ccncc3)[nH]2)c(OC)c1 [Compound 114, (2,4-Dimethoxy-phenyl)-(5-{2-[(pyridin-4-ylmethyl)-amino]-phenyl}-4H-[1,2,4]triazol-3-yl)-amine]	24
FC(F)(F)c1cccc(-c2nnc(-c3cccnc3NCc3ccco3)[nH]2)c1 [Compound 96, Furan-2-ylmethyl-{3-[5-(3-trifluoromethyl-phenyl)-4H-[1,2,4]triazol-3-yl]-pyridin-2-yl}-amine]	20
COc1cc(CNc2ccccc2-c2nnc(-c3cccc(Br)c3)[nH]2)cc(OC)c1 [Compound 151, {2-[5-(3-Bromo-phenyl)-4H-[1,2,4]triazol-3-yl]-phenyl}-(3,5-dimethoxy-benzyl)-amine]	42
CN(C)c1ccc(-c2nnc(Nc3ccc4c(c3)OCCO4)o2)c(NCc2cncnc2)c1 [Compound 234, (2,3-Dihydro-benzo[1,4]dioxin-6-yl)-(5-{4-dimethylamino-2-[(pyrimidin-5-ylmethyl)-amino]-phenyl}-[1,3,4]oxadiazol-2-yl)-amine]	30
Fc1ccc(-c2nnc(-c3cccnc3NCc3ccc4c(c3)OCO4)[nH]2)cc1Cl [Compound 81, Benzo[1,3]dioxol-5-ylmethyl-{3-[5-(3-chloro-4-fluoro-phenyl)-4H-[1,2,4]triazol-3-yl]-pyridin-2-yl}-amine]	20

SMILES	Tubulin Assay: percent inhibition at 10 μM based on 30 minute data [%]
N#Cc1ccc(S(=O)(=O)Nc2ccccc2-c2nnc(Nc3ccc4c(c3)OCCO4)o2)cc1 [Compound 242, 4-Cyano-N-{2-[5-(2,3-dihydro-benzo[1,4]dioxin-6-ylamino)-[1,3,4]oxadiazol-2-yl]-phenyl}-benzenesulfonamide]	92
COc1cccc(Nc2nnc(-c3cccnc3NCCCn3ccnc3)[nH]2)c1 [Compound 29, (3-Imidazol-1-yl-propyl)-{3-[5-(3-methoxy-phenylamino)-4H-[1,2,4]triazol-3-yl]-pyridin-2-yl}-amine]	28
COc1cccc(Nc2ncc(-c3ccccc3OCc3cccnc3)o2)c1 [Compound 257, (3-Methoxy-phenyl)-{5-[2-(pyridin-3-ylmethoxy)-phenyl]-oxazol-2-yl}-amine]	27
COc1cc(CNc2ccccc2-c2nnc(-c3ccc(C(F)(F)F)cc3)[nH]2)cc(OC)c1 [Compound 140, (3,5-Dimethoxy-benzyl)-{2-[5-(4-trifluoromethyl-phenyl)-4H-[1,2,4]triazol-3-yl]-phenyl}-amine]	20
c1ccc(-c2nnc(Nc3ccc4c(c3)OCCO4)o2)c(NCc2ccc3ncccc3c2)c1 [Compound 227, (2,3-Dihydro-benzo[1,4]dioxin-6-yl)-(5-{2-[(quinolin-6-ylmethyl)-amino]-phenyl}-[1,3,4]oxadiazol-2-yl)-amine]	99
COc1ccc(Nc2nnc(-c3cccnc3Nc3ccc4cn[nH]c4c3)[nH]2)cc1 [Compound 19, (1H-Indazol-6-yl)-{3-[5-(4-methoxy-phenylamino)-4H-[1,2,4]triazol-3-yl]-pyridin-2-yl}-amine]	20
CS(=O)(=O)c1ccc(-c2nnc(-c3cccnc3NCc3cccc(F)c3)[nH]2)cc1 [Compound 107, (3-Fluoro-benzyl)-{3-[5-(4-methanesulfonyl-phenyl)-4H-[1,2,4]triazol-3-yl]-pyridin-2-yl}-amine]	37
COc1cc(Nc2ncccc2-c2nnc(Nc3cccc(NS(=O)(=O)c4ccc5c(c4)CCO5)c3)[nH]2)cc(OC)c1 [Compound 63, 2,3-Dihydro-benzofuran-5-sulfonic acid (3-{5-[2-(3,5-dimethoxy-phenylamino)-pyridin-3-yl]-4H-[1,2,4]triazol-3-ylamino}-phenyl)-amide]	24
COc1ccc(Nc2nnc(-c3cccnc3Nc3ccc4cn[nH]c4c3)[nH]2)c(OC)c1 [Compound 22, {3-[5-(2,4-Dimethoxy-phenylamino)-4H-[1,2,4]triazol-3-yl]-pyridin-2-yl}-(1H-indazol-6-yl)-amine]	24
c1cncc(CCNc2ncccc2-c2nnc(Nc3ccc4c(c3)OCCO4)[nH]2)c1 [Compound 41, {3-[5-(2,3-Dihydro-benzo[1,4]dioxin-6-ylamino)-4H-[1,2,4]triazol-3-yl]-pyridin-2-yl}-(2-pyridin-3-yl-ethyl)-amine]	23
COc1cc(Nc2ncccc2-c2nnc(Nc3cccc(NS(=O)(=O)c4ccc5c(c4)OCCO5)c3)[nH]2)cc(OC)c1 [Compound 64, 2,3-Dihydro-benzo[1,4]dioxine-6-sulfonic acid (3-{5-[2-(3,5-dimethoxy-phenylamino)-pyridin-3-yl]-4H-[1,2,4]triazol-3-ylamino}-phenyl)-amide]	29
COc1cc(Nc2ncccc2-c2nc(Nc3ccc4c(c3)OCO4)n(C)n2)cc(OC)c1 [Compound 65, {3-[5-(Benzo[1,3]dioxol-5-ylamino)-1-methyl-1H-[1,2,4]triazol-3-yl]-pyridin-2-yl}-(3,5-dimethoxy-phenyl)-amine]	77
COc1cc(CNc2cc(N3CCN(C)CC3)ccc2-c2nnc(Nc3ccc4c(c3)OCCO4)o2)cc(OC)c1 [Compound 235, (2,3-Dihydro-benzo[1,4]dioxin-6-yl)-{5-[2-(3,5-dimethoxy-benzylamino)-4-(4-methyl-piperazin-1-yl)-phenyl]-[1,3,4]oxadiazol-2-yl}-amine]	24
COc1ccc(CNc2nnc(-c3cccnc3NCCCN3CCCC3=O)[nH]2)cc1 [Compound 57, 1-(3-{3-[5-(4-Methoxy-benzylamino)-4H-[1,2,4]triazol-3-yl]-pyridin-2-ylamino}-propyl)-pyrrolidin-2-one]	22
Fc1cccc(CNc2ncccc2-c2nnc(Nc3ccc4c(c3)OCO4)o2)c1 [Compound 171, {3-[5-(Benzo[1,3]dioxol-5-ylamino)-[1,3,4]oxadiazol-2-yl]-pyridin-2-yl}-(3-fluoro-benzyl)-amine]	91
